The subject of one assay is IL-2. The following applies: umbilical cord blood; PHA; cited from earlier work.
The test system of the next assay is newborn rat thymocytes. The following applies: Con A 50 pg/mL. An excerpt:
It was used an octapeptide with similar weight for the elaboration of the complex, to which was just the proline (4) and Glycine (5) original amino acids were interchanged by proline (4) and Glycine (5) resulting as […].

For another assay, the system named is Jurkat cells. The following applies: peptide 10^−10M, PHA 1 μg/mL.
In the next assay the test system is human lymphocytes. The following applies: for Proliferation (% with respect to the control): PHA 1 μg/mL.
A further assay deals with THP-1 cells. The following applies: for Proliferation (% with respect to the control): LPS 0.5 μg/mL. An excerpt:
We proceeded to perform some related to the proliferative stimulation of the peptide in presence of other divalent cations such as magnesium, copper, and manganese.

Data on two substances can be found in patent US20150132328A1 (priority 2011, published 2015).

Like-named read-outs stand apart in the source and are kept apart here.

Regarding LEDGPKFL [reference compound], the “Concentrations increasing IL-2 production” value with IL-2 is 300 to 600 ng/mL. In addition, the “Proliferation (% with respect to the control)” value with newborn rat thymocytes (10^−6 (918 ng/mL)) is given as 123.1 ± 6.1 %; with newborn rat thymocytes (10^−7 (91.8 ng/mL)) it was 125.6 ± 3.9 %; in the assay with newborn rat thymocytes (10^−7.5 (9.58 ng/mL)), 119.2 ± 6.1 %; in the assay with newborn rat thymocytes (10^−8 (9.18 ng/mL)), 117.3 ± 3.2 %; in the assay on newborn rat thymocytes (10^−9 (0.91 ng/mL)), 110.6 ± 7.9%; in the assay with newborn rat thymocytes (10^−10 (0.09 ng/mL)) it was 104.3 ± 4.8%. The “Proliferation (% with respect to the control)” value in the assay on newborn rat thymocytes (10^−11 (0.009 ng/mL)) is listed as 103.7 ± 5.1%; with newborn rat thymocytes (10^−12 (0.0009 ng/mL)), 104.4 ± 2.5%; in the assay on Jurkat cells ([ZINC] (M) −8), 195 ± 10 %; in the assay with Jurkat cells ([ZINC] (M) −9) it was 192 ± 12 %; in the assay with Jurkat cells ([ZINC] (M) −10), 190 ± 10 %; in the assay on Jurkat cells ([ZINC] (M) −11), 135 ± 10 %. Further, the “Proliferation (% with respect to the control)” value in the assay on Jurkat cells ([ZINC] (M) −12) was 102 ± 5.2%.

As to Zinc [reference compound], the “Proliferation (% with respect to the control)” value amounted to 96 ± 2.8% in the assay with human lymphocytes (Concentration (M) −6); 99 ± 2.7% in the assay on human lymphocytes (Concentration (M) −7); 95 ± 3.8% in the assay on human lymphocytes (Concentration (M) −7.5); 101 ± 4.1% in the assay with human lymphocytes (Concentration (M) −8); 103 ± 3.9% with human lymphocytes (Concentration (M) −9); 100 ± 3.0% in the assay with human lymphocytes (Concentration (M) −10). The “Proliferation (% with respect to the control)” value in the assay on human lymphocytes (Concentration (M) −11) stood at 99 ± 3.9%; with human lymphocytes (Concentration (M) −12) it was 96 ± 4.5%; with THP-1 cells (Concentration (M) −6) it was 105 ± 8.8%; in the assay with THP-1 cells (Concentration (M) −7), 102 ± 9.7%; in the assay on THP-1 cells (Concentration (M) −7.5), 104 ± 8.8%; in the assay with THP-1 cells (Concentration (M) −8), 102 ± 12.1%. The “Proliferation (% with respect to the control)” value in the assay with THP-1 cells (Concentration (M) −9) came to 103 ± 9.9%; in the assay with THP-1 cells (Concentration (M) −10), 100 ± 7.0%; in the assay on THP-1 cells (Concentration (M) −11) it was 101 ± 3.9%; with THP-1 cells (Concentration (M) −12) it was 98 ± 4.5%. Further, the “Effect on proliferation” value with human lymphocytes (zinc ion by itself, PHA stimulated) is “did not modify the proliferation”; in the assay with THP-1 cells (zinc ion by itself), “did not stimulate the proliferation”.
